From patent US7767814B2, “Substituted piperidine compounds and methods of their use” (Adolor Corporation, priority 2004, dated 2010)
pKi: −log10 of the molar value.

Key:
[1] = biological target: cloned human δ opioid receptor (Homo sapiens, UniProt P41143); conditions: cloned human opioid receptors; background statement; read-out: Ki, inhibition of [3H]diprenorphine binding, δ receptor; cited from earlier work
[2] = biological target: cloned human κ opioid receptor (Homo sapiens, UniProt P41145); conditions: cloned human opioid receptors; background statement; read-out: Ki, inhibition of [3H]diprenorphine binding, κ receptor; cited from earlier work
Sequence of cloned human κ opioid receptor (P41145 whole entry): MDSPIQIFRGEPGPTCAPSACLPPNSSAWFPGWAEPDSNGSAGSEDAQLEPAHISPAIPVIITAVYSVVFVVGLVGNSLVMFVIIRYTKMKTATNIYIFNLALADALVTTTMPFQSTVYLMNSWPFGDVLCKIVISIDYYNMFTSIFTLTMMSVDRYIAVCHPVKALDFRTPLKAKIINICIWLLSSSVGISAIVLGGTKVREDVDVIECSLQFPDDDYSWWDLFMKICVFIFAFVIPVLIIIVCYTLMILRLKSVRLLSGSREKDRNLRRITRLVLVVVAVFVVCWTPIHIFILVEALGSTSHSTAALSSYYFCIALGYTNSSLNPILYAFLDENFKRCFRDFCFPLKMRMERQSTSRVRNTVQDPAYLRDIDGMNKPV

[3] = biological target: T1, cloned human μ opioid receptor (Homo sapiens, UniProt P35372); assay: [3H]diprenorphine receptor binding, cloned human μ opioid receptor
T1 construct: expressed in transfected cells; membranes used
T1 sequence (P35372 whole entry): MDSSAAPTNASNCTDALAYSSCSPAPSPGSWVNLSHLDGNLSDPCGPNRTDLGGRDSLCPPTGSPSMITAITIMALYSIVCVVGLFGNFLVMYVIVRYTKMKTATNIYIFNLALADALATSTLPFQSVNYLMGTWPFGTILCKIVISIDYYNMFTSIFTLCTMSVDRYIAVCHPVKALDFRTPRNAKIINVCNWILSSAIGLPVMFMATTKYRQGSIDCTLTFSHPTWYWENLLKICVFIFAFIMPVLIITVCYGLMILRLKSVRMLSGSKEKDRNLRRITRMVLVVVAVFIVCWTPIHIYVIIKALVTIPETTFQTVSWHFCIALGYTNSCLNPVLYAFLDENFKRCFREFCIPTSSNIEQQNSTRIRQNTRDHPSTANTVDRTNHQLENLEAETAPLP
Method: IC50 values were obtained by nonlinear analysis of the data using GraphPad Prism version 3.00 for Windows (GraphPad Software, San Diego). Ki values were obtained by Cheng-Prusoff corrections of IC50 values.
After dilution in buffer A and homogenization as before, membrane proteins (10-80 μg) in 250 μL were added to mixtures containing test compound and [^3H]diprenorphine (0.5 to 1.0 nM, 40,000 to 50,000 dpm) in 250 μL of buffer A in 96-well deep-well polystyrene titer plates (Beckman). […] The filters were rinsed 4 times with 1 mL of cold 50 mM Tris HCl, pH 7.8 and radioactivity remaining on the filters determined by scintillation spectroscopy. Nonspecific binding was determined by the minimum values of the titration curves and was confirmed by separate assay wells containing 10 μM naloxone.
To determine the equilibrium dissociation constant for the inhibitors (Ki), radioligand bound (cpm) in the presence of various concentrations of test compounds was measured. The concentration to give half-maximal inhibition (EC50) of radioligand binding was determined from a best nonlinear regression fit to the following equation, […]

Sequence of cloned human δ opioid receptor (P41143 whole entry): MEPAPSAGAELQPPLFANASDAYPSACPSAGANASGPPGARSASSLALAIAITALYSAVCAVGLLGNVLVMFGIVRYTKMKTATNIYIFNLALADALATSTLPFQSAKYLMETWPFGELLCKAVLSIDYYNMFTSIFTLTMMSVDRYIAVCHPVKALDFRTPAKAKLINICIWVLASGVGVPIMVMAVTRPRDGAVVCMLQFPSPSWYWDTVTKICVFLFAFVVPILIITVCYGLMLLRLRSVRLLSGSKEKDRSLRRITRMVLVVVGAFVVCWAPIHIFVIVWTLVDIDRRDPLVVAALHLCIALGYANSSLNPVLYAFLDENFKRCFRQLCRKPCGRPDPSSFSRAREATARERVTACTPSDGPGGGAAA

SMILES | pKi [1] | pKi [2] | pKi [3]
C[C@H]1CN(C[C@H](Cc2ccccc2)C(=O)NCC(=O)O)CC[C@@]1(C)c1cccc(O)c1 [Alvimopan] | 8.00 | 7.04 | –
C[C@H]1C2CCC[C@]1(c1cccc(O)c1)CCN2C[C@H](Cc1ccccc1)C(=O)NCC(=O)O [Example 2, {2S-Benzyl-3-[5-(3-hydroxy-phenyl)-9-methyl-2-aza-bicyclo[3.3.1]non-2-yl]-propionylamino}-acetic acid] | – | – | 8.82
